System: gout patients with hyperuricemia
Assay: Febuxostat alone and in combination with drug 1, open-label study in gout patients with hyperuricemia (Examples 23, 24)
Format: in vivo, human
Conditions: for Mean absolute sUA reduction / Mean sUA % change / Mean sUA level: ± SE
Protocol: Study Objectives • To measure the effect of febuxostat alone and in combination with drug 1 on serum urate concentrations. • To evaluate the safety and tolerability of drug 1 in combination with febuxostat.
The study is open-label in gout patients with hyperuricemia, involving 2 panels of ˜10-12 patients per panel. The panels may be enrolled simultaneously.
Panel 1 receives a once-daily dose of febuxostat 40 mg with ascending doses of drug 1. Panel 2 receives a once-daily dose of febuxostat 80 mg with ascending doses of drug 1.
• Day −14 to Day 28: colchicine prophylaxis; or • Day −7 to Day 28: colchicine prophylaxis (for patients not washing out from ULT) • Days 1-7: febuxostat 40 mg qd • Days 8-14: febuxostat 40 mg qd+drug 1 400 mg qd • Days 15-21: febuxostat 40 mg qd+drug 1 600 mg qd
• Day −14 to Day 28: colchicine prophylaxis; or • Day −7 to Day 28: colchicine prophylaxis (for patients not washing out from ULT) • Days 1-7: febuxostat 80 mg qd • Days 8-14: febuxostat 80 mg qd+drug 1 400 mg qd • Days 15-21: febuxostat 80 mg qd+drug 1 600 mg qd
Gout patients on a urate lowering therapy (ULT), have previously taken a ULT or who have never taken a ULT are eligible to participate. Screening procedures to determine patient eligibility are performed within approximately 21 days of the first dose of study drug (Day 1). Subjects currently on ULT wash-out for approximately 14 days before Day 1, and begin colchicine (Colcrys® 0.6 mg qd, URL Pharma) as prophylaxis for gout flares. During the washout period, subjects who have discontinued ULT may have their sUA re-tested (at least 7 days after washing out) to confirm eligibility. Subjects not on ULT begin colchicine administration at least 7 days prior to Day 1. […] Patients intolerant of colchicine during the screening period are considered screen failures and not enrolled. Prophylactic administration of colchicine continues for 7 days after the last dose of study medication.
Eligible patients report to the study center early morning on Days −1, 7, 14, and 21 (or the afternoon/evening the day before). Serial blood samples are collected on Days −1, 7, 14, and 21. 24-hour urine collection is obtained on Days −1, 7, 14, and 21. Spot urine assessments also obtained on Day −1.
Study medication is administered to each patient and taken orally every morning with approximately 240 mL of water, at approximately the same time of the morning every day, and approximately 30 minutes after finishing a full breakfast (approximately 650 Kcal and 35% fat); the breakfast is standardized on Days −1 to 21.
Inclusion Criteria • Patient is male or post-menopausal or surgically sterile female. • Patient is 18-80 years of age, inclusive. • Patient meets one or more criteria for the diagnosis of gout as per the American Rheumatism Association (ARA) Criteria for the Classification of Acute Arthritis of Primary Gout (Appendix C). • Patient sUA≥8 mg/dL at screening. • Patient willing and able to give informed consent and adhere to visit/protocol schedules • No clinically relevant abnormalities in blood pressure (BP), heart rate (HR), body temperature and respiratory rate as per Investigator's judgment.
Subject urate serum levels are recorded, and any safety concerns assessed (by adverse events, clinical laboratory test results, vital signs, 12-lead ECGs, and physical examinations). […] Urate serum concentrations are evaluated for treatment- and/or time-dependent changes relative to baseline (Day −1), and may be expressed both in standard units (mg/dL) and as changes from baseline (e.g., percent change, absolute change, maximal change, and time or day of maximal change).
Drug 1 was tested according to the clinical trial protocol described in Example 23.
Serum urate levels were measured and absolute and % reduction levels from baseline calculated. Mean levels, mean absolute reductions (mg/dL, all data SE) and % change results are presented in the table below and in FIGS. 10 and 11. […]

[1] = FBX 40 mg alone, FBX 40 mg + Drug 1 400 mg
[2] = FBX 40 mg qd alone days 1-7, FBX 40 mg + Drug 1 400 mg qd days 8-14
[3] = FBX 80 mg alone, FBX 80 mg + Drug 1 400 mg
[4] = FBX 80 mg qd alone days 1-7, FBX 80 mg + Drug 1 400 mg qd days 8-14

Compound: Cc1nc(-c2ccc(OCC(C)C)c(C#N)c2)sc1C(=O)O [Febuxostat, 2-(3-Cyano-4-isobutoxyphenyl)-4-methyl-1,3-thiazole-5-carboxylic acid, reference compound]
- % Response rate for sUA <3 mg/dL [1]: 0%
- % Response rate for sUA <4 mg/dL [1]: 0%
- % Response rate for sUA <5 mg/dL [1]: 17%
- % Response rate for sUA <6 mg/dL [1]: 67%
- Mean absolute sUA reduction [2]: -3.2 ± 0.21 mg/dL
- Mean sUA % change [2]: −35.7 ± 2.0%
- Mean sUA level [2]: 5.6 ± 0.24 mg/dL
- % Response rate for sUA <3 mg/dL [3]: 0%
- % Response rate for sUA <4 mg/dL [3]: 0%
- % Response rate for sUA <5 mg/dL [3]: 22%
- % Response rate for sUA <6 mg/dL [3]: 56%
- Mean absolute sUA reduction [4]: -4.6 ± 0.51 mg/dL
- Mean sUA % change [4]: −44.2 ± 3.5%
- Mean sUA level [4]: 5.7 ± 0.29 mg/dL

Source: patent US20180161314A1, “Methods for Treating Hyperuricemia and Related Diseases” (Ardea Biosciences, Inc., priority 2010, published 2018)
